In patent US7264832B2, “Cyclooxygenase-2 inhibitory withanolide compositions and method” (Board of Trustees of Michigan State University, priority 2002, dated 2007):

Experiments:
[1] = Antioxidant activity: inhibition of Fe2+-initiated lipid peroxidation in large unilamellar vesicles; conditions: 100 ppm (100 μg/ml), at 20 min, relative to DMSO control
Experimental: The ability of withanolides to inhibit lipid peroxidation in a model system was used to determine whether they could act as antioxidants. The assay was conducted by using large unilamellar vesicles and peroxidation was initiated by adding Fe^2+.
Antioxidant activity. […] The percentage of inhibition was calculated with respect to DMSO control. All compounds were tested at 100 μg/ml and the positive controls BHA, BHT and TBHQ were tested at 10 μM.

[2] = molecular target: T1, COX-2 enzyme (human PGHS-2) isolated from insect cells (Homo sapiens, UniProt P35354); assay: Cyclooxygenase enzyme inhibitory assay, COX-2 (initial rate of O2 uptake)
T1 sequence (P35354 18-604): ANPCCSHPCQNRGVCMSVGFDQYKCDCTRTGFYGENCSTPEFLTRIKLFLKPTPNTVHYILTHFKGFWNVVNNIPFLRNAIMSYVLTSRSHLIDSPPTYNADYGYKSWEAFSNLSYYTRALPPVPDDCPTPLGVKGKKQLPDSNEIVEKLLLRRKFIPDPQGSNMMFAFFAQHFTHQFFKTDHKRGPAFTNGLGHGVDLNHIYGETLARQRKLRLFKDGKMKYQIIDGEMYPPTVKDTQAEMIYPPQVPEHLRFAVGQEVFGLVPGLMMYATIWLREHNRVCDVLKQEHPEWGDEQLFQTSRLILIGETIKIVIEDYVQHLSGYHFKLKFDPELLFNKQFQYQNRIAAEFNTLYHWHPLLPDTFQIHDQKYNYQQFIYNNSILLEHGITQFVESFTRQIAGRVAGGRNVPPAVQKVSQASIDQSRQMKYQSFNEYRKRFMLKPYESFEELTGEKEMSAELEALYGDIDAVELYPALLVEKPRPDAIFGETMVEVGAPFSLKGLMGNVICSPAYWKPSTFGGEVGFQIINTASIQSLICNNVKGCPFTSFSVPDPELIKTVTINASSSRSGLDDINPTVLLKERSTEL
Experimental: (§1) The withanolides isolated from the leaves were evaluated for their cyclooxygenase (COX) enzyme inhibitory activity using prostaglandin endoperoxide synthase isozymes-1 (COX-1) and PGHS-2 (COX-2).
(§2) Cyclooxygenase enzyme inhibitory assay. COX-1 enzyme was prepared from ram seminal vesicles and COX-2 enzyme was isolated from insect cells cloned with human PGHS-2 enzyme. The inhibitory effects of test compounds on COX-1 and -2 were measured by monitoring the initial rate of 02 uptake using an oxygen electrode (Instech Laboratories, Plymouth Meeting, Pa.) attached to a biological oxygen monitor (Yellow Spring Instrument, Inc., Yellow Spring, Ohio) at 37° C. The enzymes were diluted (1:1) with Tris buffer (pH 7, 10-15 μl) and the test compounds (100 μg/ml, 10 μl) dissolved in DMSO were added to the assay mixture composed of 3 ml of 0.1 M Tris HCl, pH 7, 1 mmol phenol and 85 μg of hemoglobin. […] The instantaneous inhibition was measured by using Quick Log Data acquisition and control computer software (Strawberry Tree Inc., Sunnyvale, Calif., USA).

[3] = molecular target: T2, COX-1 enzyme (prostaglandin endoperoxide synthase isozyme-1) prepared from ram seminal vesicles (Ovis aries, UniProt P05979); assay: Cyclooxygenase enzyme inhibitory assay, COX-1 (initial rate of O2 uptake)
T2 sequence (P05979 25-600): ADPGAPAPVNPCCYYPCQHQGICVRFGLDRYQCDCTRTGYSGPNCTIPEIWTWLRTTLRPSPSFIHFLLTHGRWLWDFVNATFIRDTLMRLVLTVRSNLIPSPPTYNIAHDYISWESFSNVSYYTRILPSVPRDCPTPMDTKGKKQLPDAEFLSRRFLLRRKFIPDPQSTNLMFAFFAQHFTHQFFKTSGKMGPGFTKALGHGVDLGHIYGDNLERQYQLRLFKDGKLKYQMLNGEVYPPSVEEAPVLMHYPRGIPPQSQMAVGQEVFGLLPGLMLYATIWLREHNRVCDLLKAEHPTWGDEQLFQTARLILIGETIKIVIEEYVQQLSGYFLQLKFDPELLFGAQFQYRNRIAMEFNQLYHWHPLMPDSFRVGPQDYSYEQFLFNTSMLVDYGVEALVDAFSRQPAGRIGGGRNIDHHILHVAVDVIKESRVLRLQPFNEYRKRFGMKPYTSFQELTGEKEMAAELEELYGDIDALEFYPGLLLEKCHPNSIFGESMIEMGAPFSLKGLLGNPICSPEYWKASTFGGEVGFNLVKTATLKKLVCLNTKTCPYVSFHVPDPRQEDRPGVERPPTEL
Experimental: as §1, §2

| Compound | COX-2 enzyme inhibition ([2]; 50 μg/ml) [%] | inhibition of lipid peroxidation [1] | COX-2 enzyme inhibition ([2]; 100 μg/ml) | further results |
| --- | --- | --- | --- | --- |
| 23,24-dihydrowithaferin A [Compound 9] | – | did not show activity | neither COX-1 nor COX-2 activities | COX-1 activity ([3]; 100 μg/ml): neither COX-1 nor COX-2 activities |
| COc1ccc2cc([C@H](C)C(=O)O)ccc2c1 [naproxen, reference compound] | – | – | – | inhibition at 2.5 µg/mL ([3]; read-out: COX-1 inhibition): 79%; inhibition at 2.5 µg/mL ([2]; read-out: COX-2 inhibition): 95% |
| CC1=C(CO[C@@H]2O[C@H](CO)[C@@H](O)[C@H](O)[C@H]2O)C(=O)OC([C@@H](C)[C@H]2CC[C@H]3[C@@H]4C[C@H]5O[C@]56[C@@H](O)[C@@H](O)CC(=O)[C@]6(C)[C@H]4CC[C@]23C)C1 (stereo partly drawn) [Compound 3, 27-O-β-D-glucopyranosyl viscosalactone B] | 7 | – | – | – |
| CC1=C(CO)C(=O)O[C@@H]([C@@H](C)[C@H]2CC[C@H]3[C@@H]4CC=C5C[C@@H](O[C@@H]6O[C@H](CO)[C@@H](O)[C@H](O)[C@H]6O)C[C@H](O)[C@]5(C)[C@H]4CC[C@]23C)C1 [Compound 11, physagulin D] | – | 55% | 14% | – |
| CC1=C(CO)C(=O)OC(C(C)C2CCC3C4CC5OC56C(O)CCC(=O)C6(C)C4CCC23C)C1 (centres unmarked) [Compound 7, 2,3-dihydrowithaferin A] | – | 5% | 27% | – |
| CC1=C(CO)C(=O)O[C@@H]([C@@H](C)[C@H]2CC[C@H]3[C@@H]4CC=C5C[C@@H](O[C@@H]6O[C@H](CO[C@@H]7O[C@H](CO)[C@@H](O)[C@H](O)[C@H]7O)[C@@H](O)[C@H](O)[C@H]6O)C[C@H](O)[C@]5(C)[C@H]4CC[C@]23C)C1 [Compound 12, withanolide IV] | – | did not show activity | 23% | – |
| CC1=C(CO)C(=O)O[C@@H]([C@@H](C)[C@H]2CC[C@H]3[C@@H]4C[C@H]5O[C@]56[C@@H](O)[C@@H](O)CC(=O)[C@]6(C)[C@H]4CC[C@]23C)C1 [Compound 8, viscosalactone B] | – | did not show activity | 35% | – |
| CC1=C(CO[C@@H]2O[C@H](CO)[C@@H](O)[C@H](O)[C@H]2O)C(=O)O[C@@H]([C@@H](C)[C@H]2CC[C@H]3[C@@H]4C[C@H]5O[C@]56[C@@H](O)C=CC(=O)[C@]6(C)[C@H]4CC[C@]23C)C1 [Compound 10, sitoindoside IX] | – | 44% | – | inhibition at 100 µg/mL ([2]; read-out: COX-2 enzyme inhibition): 13% |
| CC1=C(CO)C(=O)O[C@@H]([C@@H](C)[C@H]2CC[C@H]3[C@@H]4C[C@H]5O[C@]56[C@@H](O)C=CC(=O)[C@]6(C)[C@H]4CC[C@]23C)C1 [Compound 6, withaferin A] | – | did not show activity | 39% | – |
| CC(=O)Oc1ccccc1C(=O)O [Aspirin, reference compound] | – | – | – | COX-1 inhibition ([3]; tested at 180 μg/ml): 61%; inhibition at 180 µg/mL ([2]; read-out: COX-2 inhibition): 7% |

Second part, led by results:

| COX-2 enzyme inhibition ([2]; 50 μg/ml) [%] | Compound | inhibition of lipid peroxidation [1] | COX-2 enzyme inhibition ([2]; 100 μg/ml) | further results |
| --- | --- | --- | --- | --- |
| 15 | 4-(1-hydroxy-2,2-dimethylcyclo-propanone)-2,3-dihydrowithaferin A [Compound 5] | did not show activity | – | – |
| 9 | 27-O-β-D-glucopyranosyl physagulin D [Compound 2] | – | – | – |
| 5 | 4,16-dihydroxy-5β,6β-epoxyphysagulin D [Compound 4] | 40% | – | – |
| 15 | physagulin D (1→6)-β-D-glucopyranosyl-(1→4)-β-D-glucopyranoside [Compound 1] | – | – | – |
